The values below come from patent US20250282795A1, “EGFR Inhibitors in cancer treatment” (Celyn Therapeutics, Inc., priority 2022, published 2025).

Holding throughout (type): cell-based
The subject of one series is Ba/F3 (L858R + T790M). In words: Cellular growth inhibition assay (CellTiter-Glo), Ba/F3 (L858R+T790M). As to conditions: Mus musculus, BaF3, 72 h; 3 days of incubation. The method, then:
(§1) Example E. Cellular Growth Inhibition Assay
(§2) Ba/F3(Empty vector) (Signosis), Ba/F3(Wild type) (Signosis), Ba/F3(L^858R+T790M) (Signosis), Ba/F3(A767_dupASV) (Signosis), Ba/F3(D770_N771insSVD) (Signosis), Ba/F3(H773_V774insNPH) (Signosis) were seeded at a density of 4000 cells per well in a CellBIND® 384-well Flat Clear Bottom Black Polystyrene Microplates (Coming, USA, Cat #3770) in 45 μl total volume of RPMI (PanEco, Cat #C330, Russia) with […] (HyClone, Cat #SV30160.03) and with 10 ng/ml rmIL-3 (RD systems, USA, Cat #403-ML-025) (for BaBF3(Empty vector)) and with 10 ng/ml rhEGF (ThermoFisher, USA, Cat #PHG0311L) (for BaCF3(Wild type)). 500× compounds solutions in DMSO (Sigma Cat #D2650) were prepared into Cmpnds plate (DiamondWell Plate, Axigen, Cat #P-384-120SQ-C—S) and DMSO only control was included. 1.l of 500× compounds (Cmpnds plate) was added to 49 µl of culture medium into Dilution plate (Diamond Well Plate, Axigen, Cat #P-384-120SQ-C—S), mixed and then 5 μl of 10× compounds solutions were transferred to cells followed by centrifugation at 100 g for 1 min. Final DMSO concentration was 0.2% o. After 3 days of incubation 10.l of CellTiter-Glo (Promega, CAT #G7572) were added to the cells, plate was centrifuged at 100 g for 1 min and luminescence signal was measured using Microplate Reader (CLARIOStar).
(ATP-based viability assays read luminescence as a measure of living cells.)

The next series deals with Ba/F3 (EGFRwt). The series can be described thus: Cellular growth inhibition assay (CellTiter-Glo), Ba/F3 (EGFRwt). As to conditions: Mus musculus, BaF3, 72 h; Ba/F3 (Wild type) with 10 ng/ml rhEGF, 3 days of incubation. The method, then:
as §1, §2

Series [1] can be described thus: Cellular growth inhibition assay (CellTiter-Glo), Ba/F3 (Empty vector). The note with it: mouse, Ba/F3 cells with empty vector; Ba/F3 (Empty vector) with 10 ng/ml rmIL-3, 3 days of incubation. The method, then:
as §1, §2

A further series has as its system Ba/F3 (H773_V774insSVD). In words: Cellular growth inhibition assay (CellTiter-Glo), Ba/F3 (H773_V774insSVD). As to conditions: Mus musculus, BaF3, 72 h; 3 days of incubation; read-out: Ba/F3 (H773_V774 insSVD) CC50.
The next series relates to Ba/F3 (A767_dupASV). In words: Cellular growth inhibition assay (CellTiter-Glo), Ba/F3 (A767_dupASV). The note with it: Mus musculus, BaF3, 72 h; 3 days of incubation; read-out: Ba/F3 (A767_dup ASV) CC50. The method, then:
as §1, §2

Another series concerns Ba/F3 (D770_N771insSVD). The series can be described thus: Cellular growth inhibition assay (CellTiter-Glo), Ba/F3 (D770_N771insSVD). The note with it: Mus musculus, BaF3, 72 h; 3 days of incubation; read-out: Ba/F3 (D770_N771 insSVD) CC50. The method, then: as §1, §2

`COc1c(F)cccc1Nc1c2[nH]c3c1C(=O)NC[C@H]3CC(=O)N1CCC[C@H]1C(=O)NCCCOc1cnccc1-2` [Compound 148, (16aS,22aR)-23-(3-fluoro-2-methoxyanilino)-14,15,16a,17,18,19,22,22a-octahydro-2H,12H-4,6-(metheno)dipyrido[3,4-k: 4′,3′-o]pyrrolo[2,1-g][1,5,8,13]oxatriazacyclohexadecine-3,16,21(1H,5H,13H)-trione]: the CC50 with Ba/F3 (L858R + T790M), in the series with Ba/F3 (EGFRwt), in the series with Ba/F3 (H773_V774insSVD), in the series on Ba/F3 (A767_dupASV) and with Ba/F3 (D770_N771insSVD) was more than 10 µM throughout. Also, the CC50 at 3 days in series [1] is more than 10 µM.

As for `COc1c(F)cccc1Nc1c2[nH]c3c1C(=O)NCC3C/C=C/COc1cccc(c1)COc1cnccc1-2` (stereo not shown) [Compound 29, (19E)-28-[(3-Fluoro-2-methoxyphenyl)amino]-3,22-dioxa-6,11,15-triazapentacyclo[21.3.1^10,13.0^4,9.0^12,17]octacosa-1(27),4,6,8,10(28),12,19,23,25-nonaen-14-one], the CC50 was in the range of 1 to 10 µM in the series on Ba/F3 (L858R + T790M); 0.1 to 1 µM in the series on Ba/F3 (EGFRwt); 1 to 10 µM with Ba/F3 (H773_V774insSVD); 0.1 to 1 µM with Ba/F3 (A767_dupASV); 0.1 to 1 µM with Ba/F3 (D770_N771insSVD). This compound came in with a CC50 at 3 days in series [1] of more than 10 µM.

Turning to `COc1c(F)cccc1Nc1c2[nH]c3c1C(=O)NCC3CC(=O)N1CCN(CCOc3cnccc3-2)CC1` (stereo not shown) [Compound 131, 20-(3-fluoro-2-methoxyanilino)-6,7,9,10,13,13a,14,15-octahydro-12H-8,11-ethano-17,19-(metheno)dipyrido[3,4-j: 4′,3′-n][1,4,7,12]oxatriazacyclopentadecine-12,16(18H)-dione], the CC50 with Ba/F3 (L858R + T790M) was in the range of 0.1 to 1 µM; in the series on Ba/F3 (EGFRwt), 0.01 to 0.1 µM; in the series with Ba/F3 (H773_V774insSVD), 0.1 to 1 µM; in the series on Ba/F3 (A767_dupASV), 0.001 to 0.01 µM; with Ba/F3 (D770_N771insSVD), 0.01 to 0.1 µM. Further, the CC50 at 3 days in series [1] was 1 to 10 µM.

Turning to `COc1c(F)cccc1Nc1c2[nH]c3c1C(=O)NCC3CCCCCCN1CCCC(COc3cnccc3-2)C1` (stereo not shown) [Compound 129, 24-(3-fluoro-2-methoxyanilino)-7,8,9,10,13,14,15,16,17,17a,18,19-dodecahydro-6H,12H-7,11-methano-21,23-(metheno)dipyrido[3,4-b: 4′,3′-f][1,5,14]oxadiazacyclononadecin-20(22H)-one], the CC50 in the series with Ba/F3 (L858R + T790M) fell in the range of 1 to 10 µM; with Ba/F3 (EGFRwt) it was 0.1 to 1 µM; in the series on Ba/F3 (H773_V774insSVD), 0.1 to 1 µM; in the series with Ba/F3 (A767_dupASV), 0.001 to 0.01 µM; in the series with Ba/F3 (D770_N771insSVD), 0.01 to 0.1 µM. Besides, the CC50 at 3 days in series [1] was more than 10 µM.

For the compound `COc1c(F)cccc1Nc1c2[nH]c3c1C(=O)NCC3CC(=O)N1CCN(CCOCCOc3cnccc3-2)CC1` (stereo not shown) [Compound 153, 29-(3-Fluoro-2-methoxyanilino)-18,21-dioxa-1,6,10,15,24-pentaazapentacyclo[22.2.2.1^8,110^4,9.0^12,17]nonacosa-8,11(29),12(17),13,15-pentaene-2,7-dione], the CC50 in the series on Ba/F3 (L858R + T790M), in the series with Ba/F3 (EGFRwt), in the series with Ba/F3 (H773_V774insSVD), with Ba/F3 (A767_dupASV) and in the series on Ba/F3 (D770_N771insSVD) was more than 10 µM throughout. This compound showed a CC50 at 3 days in series [1] of more than 10 µM.

In the case of `COc1c(F)cccc1Nc1c2[nH]c3c1C(=O)NCC3C/C=C/CCCC(=O)N1CCCC(COc3cnccc3-2)C1` (stereo not shown) [Compound 118, 25-[(3-Fluoro-2-methoxyphenyl)amino]-7,8,9,10,14,15,18,18a,19,20-decahydro-6H-7,11-methano-22,24-methenodipyrido[3,4-b:4′,3′-f][1,5,15]oxadiazacycloicosine-12,21(13H,23H)-dione], the CC50 lay in the range of 1 to 10 µM with Ba/F3 (L858R + T790M); 1 to 10 µM in the series on Ba/F3 (EGFRwt); 1 to 10 µM in the series on Ba/F3 (H773_V774insSVD); 0.1 to 1 µM in the series with Ba/F3 (A767_dupASV); 1 to 10 µM in the series with Ba/F3 (D770_N771insSVD). For the same compound, the CC50 at 3 days in series [1] is 1 to 10 µM.

Take `COc1c(F)cccc1Nc1c2[nH]c3c1C(=O)NCC3CCCCN(C)CCOc1cnccc1-2` (stereo not shown) [Compound 127, 19-[(3-Fluoro-2-methoxyphenyl)amino]-8-methyl-6,7,8,9,10,11,12,12a,13,14-decahydro-16,18-methenodipyrido[3,4-i:4′,3′-m][1,4,11]oxadiazacyclotetradecin-15(17H)-one]: the CC50 in the series on Ba/F3 (L858R + T790M) is more than 10 µM; in the series with Ba/F3 (EGFRwt) it was 1 to 10 µM; in the series with Ba/F3 (H773_V774insSVD) it was more than 10 µM; in the series on Ba/F3 (A767_dupASV), 1 to 10 µM; with Ba/F3 (D770_N771insSVD), more than 10 µM. In series [1], this compound displayed a CC50 at 3 days of more than 10 µM.

Regarding `COc1c(F)cccc1Nc1c2[nH]c3c1C(=O)NCC3C/C=C\CCCC(=O)N1CCCC(COc3cnccc3-2)C1` (stereo not shown) [Compound 117, 25-[(3-Fluoro-2-methoxyphenyl)amino]-7,8,9,10,14,15,18,18a,19,20-decahydro-6H-7,11-methano-22,24-methenodipyrido[3,4-b:4′,3′-f][1,5,15]oxadiazacycloicosine-12,21(13H,23H)-dione], the CC50 in the series on Ba/F3 (L858R + T790M) was 1 to 10 µM; in the series on Ba/F3 (EGFRwt), 0.1 to 1 µM; in the series with Ba/F3 (H773_V774insSVD), 1 to 10 µM; in the series on Ba/F3 (A767_dupASV) it was 0.01 to 0.1 µM; in the series on Ba/F3 (D770_N771insSVD) it was 0.1 to 1 µM. In series [1], this compound had a CC50 at 3 days of more than 10 µM.

For `COc1c(F)cccc1Nc1c2[nH]c3c1C(=O)NCC3CCCOCCNCCCOc1cnccc1-2` (stereo not shown) [Compound 143, 22-(3-fluoro-2-methoxyanilino)-6,7,8,9,10,11,13,14,15,15a,16,17-dodecahydro-19,21-(metheno)dipyrido[3,4-i: 4′,3′-m][1,8,4,12]dioxadiazacycloheptadecin-18(20H)-one], the CC50 in the series on Ba/F3 (L858R + T790M), in the series on Ba/F3 (H773_V774insSVD), in the series with Ba/F3 (A767_dupASV) and with Ba/F3 (D770_N771insSVD) was more than 10 µM in each case. Besides, the CC50 at 3 days in series [1] is more than 10 µM.

Turning to `COc1c(F)cccc1Nc1c2[nH]c3c1C(=O)NC[C@H]3CCCN1CC[C@@H](COc3cnccc3-2)C1` (stereo in doubt) [Compound 163, 20-[(3-Fluoro-2-methoxyphenyl)amino]-6,7,8,9,11,12,13,13a,14,15-decahydro-7,10-methano-17,19-methenodipyrido[3,4-b:4′,3′-f][1,5,11]oxadiazacyclopentadecin-16(18H)-one], the CC50 with Ba/F3 (L858R + T790M) was more than 10 µM; in the series with Ba/F3 (H773_V774insSVD) it was 0.1 to 1 µM; in the series with Ba/F3 (A767_dupASV) it was 0.01 to 0.1 µM; with Ba/F3 (D770_N771insSVD), 0.1 to 1 µM. The CC50 at 3 days in series [1] was more than 10 µM.

Consider `COc1c(F)cccc1Nc1c2[nH]c3c1C(=O)NCC3CC(=O)N[C@@H](C)C(=O)NCCCOc1cnccc1-2` (stereo partly drawn) [Compound 140, (11S)-21-(3-fluoro-2-methoxyanilino)-11-methyl-6,7,8,9,11,12,14,14a,15,16-decahydro-18,20-(metheno)dipyrido[3,4-k: 4′,3′-o][1,5,8,13]oxatriazacyclohexadecine-10,13,17(19H)-trione], for which the CC50 in the series on Ba/F3 (L858R + T790M) is more than 10 µM; with Ba/F3 (H773_V774insSVD), more than 10 µM; in the series with Ba/F3 (A767_dupASV), 1 to 10 µM; in the series with Ba/F3 (D770_N771insSVD), more than 10 µM. Moreover, the CC50 at 3 days in series [1] was more than 10 µM.

Turning to `COc1c(F)cccc1Nc1c2[nH]c3c1C(=O)NCC3CCCCCOc1cnccc1-2` (stereo not shown) [Compound 101, 1^3-((3-Fluoro-2-methoxyphenyl)amino)-1^4,1^5,1^6,1^7-tetrahydro-l^1H-3-oxa-1(2,7)-pyrrolo[3,2-c]pyridina-2(4,3)-pyridinacyclooctaphan-1^4-one], the CC50 lay in the range of 1 to 10 µM with Ba/F3 (L858R + T790M), 0.1 to 1 µM with Ba/F3 (H773_V774insSVD), 0.01 to 0.1 µM in the series with Ba/F3 (A767_dupASV) and 0.1 to 1 µM in the series on Ba/F3 (D770_N771insSVD). For the same compound, in series [1], the CC50 at 3 days was more than 10 µM.

For the compound `COc1c(F)cccc1Nc1c2[nH]c3c1C(=O)NC[C@H]3CCCN1CCO[C@H](COc3cnccc3-2)C1` [Compound 158, (7S)-21-[(3-Fluoro-2-methoxyphenyl)amino]-6,7,9,10,12,13,14,14a,15,16-decahydro-7,11-methano-18,20-methenodipyrido[3,4-k:4′,3′-o][1,4,7,13]dioxadiazacyclohexadecin-17(19H)-one], the CC50 with Ba/F3 (L858R + T790M) is more than 10 µM; in the series with Ba/F3 (H773_V774insSVD), 1 to 10 µM; with Ba/F3 (A767_dupASV) it was 0.1 to 1 µM; in the series on Ba/F3 (D770_N771insSVD), 1 to 10 µM. In addition, in series [1], the CC50 at 3 days lay in the range of 1 to 10 µM.
